Test systems include Candida albicans MDM8; Escherichia coli SBS 363; Micrococcus luteus A270; Escherichia coli UB1005; Escherichia coli BL21AI.
Common to all, as to assay: ≥ marks a high value that may be exact or a test limit, other limits are often not marked, values filed in µg/mL are converted to µM
Experiment [1] relates to Bacillus megaterium ATCC 10778.
Experiment [2] deals with Bacillus subtilis ATCC 6633.
Experiment [3] concerns Candida tropicalis IOC 4560.
Experiment [4] deals with Enterobacter cloacae beta-12.
Experiment [5] deals with Pseudomonas aeruginosa ATCC 27853.
Experiment [6] has as its system Serratia marcescens ATCC 4112.
Experiment [7] deals with Staphylococcus aureus ATCC 29213.
Experiment [8] has as its system Bacillus subtilis KCTC 3068.
For experiment [9], the system named is Enterococcus faecalis KCTC 2011.
Experiment [10] deals with Escherichia coli KCTC 1682.
Experiment [11] has as its system Proteus vulgaris KCTC 2433.
Experiment [12] relates to Pseudomonas aeruginosa KCTC 1637.
Experiment [13] deals with Salmonella typhimurium KCTC 1926.
Experiment [14] has as its system Staphylococcus aureus KCTC 1621.
Experiment [15] concerns Staphylococcus epidermidis KCTC 1917.
Experiment [16] concerns Acinetobacter baumannii ATCC 17978.
Experiment [17] has as its system Escherichia coli ATCC 8739.
Experiment [18] relates to Staphylococcus aureus HNCMO 112011.
Experiment [19] concerns Escherichia coli KCTC 2223.
The subject of experiment [20] is Micrococcus luteus ATCC 10240.
In experiment [21] the test system is Salmonella typhimurium KCTC 2370.
Experiment [22] deals with Staphylococcus aureus ATCC 15752.
Experiment [23] has as its system Bacillus cereus CMCC 6303.
The subject of experiment [24] is Cronobacter sakazakii ATCC 29544.
The test system of experiment [25] is Listeria monocytogenes CMCC 54004.
The test system of experiment [26] is Salmonella enterica subsp. enterica CMCC 47020.
Experiment [27] deals with Salmonella enterica subsp. enterica serovar Pullorum C79-13.
The test system of experiment [28] is Salmonella enterica subsp. enterica serovar Typhi CMCC 50071.
For experiment [29], the system named is Salmonella enterica subsp. enterica serovar Typhimurium ATCC 14028.
For experiment [30], the system named is Salmonella enterica subsp. enterica serovar Typhimurium C77-31.
Experiment [31] has as its system Staphylococcus aureus ATCC 25923.
For experiment [32], the system named is Staphylococcus aureus CMCC 26074.
The test system of experiment [33] is Micrococcus luteus DSM 1790.

The source of these data is DBAASP.

Structures are written as SMILES. Values after ≈ are worked out from the molar mass of the structure shown.

Regarding `CC(C)C[C@H](NC(=O)[C@H](C)NC(=O)[C@H](CCCN=C(N)N)NC(=O)[C@H](CC(C)C)NC(=O)[C@@H](N)Cc1ccccc1)C(=O)N[C@@H](Cc1c[nH]c2ccccc12)C(=O)N[C@@H](CC(N)=O)C(=O)N[C@H](C(=O)N[C@@H](C)C(=O)N[C@@H](CCCCN)C(=O)N[C@@H](CO)C(=O)N[C@H](C(=O)N[C@@H](Cc1ccccc1)C(N)=O)C(C)C)C(C)C` [FLRALWNVAKSVF], the MIC is 1.6 µM (≈ 2.48 µg/mL) in experiment [1]; 0.8 µM (≈ 1.24 µg/mL) in [2]; 3.1 µM (≈ 4.8 µg/mL) with Candida albicans MDM8; 1.6 µM (≈ 2.48 µg/mL) in [3]; 12.5 µM (≈ 19.4 µg/mL) in experiment [4]; 1.6 µM (≈ 2.48 µg/mL) in the experiment on Escherichia coli SBS 363. In addition, the MIC in the experiment on Micrococcus luteus A270 came to 1.6 µM (≈ 2.48 µg/mL); in [5] it was 12.5 µM (≈ 19.4 µg/mL); in [6], 0.4 µM (≈ 0.62 µg/mL); in experiment [7] it was 1.6 µM (≈ 2.48 µg/mL).
Take `CC(C)C[C@H](NC(=O)[C@H](CC(C)C)NC(=O)[C@H](CCCCN)NC(=O)[C@H](CC(C)C)NC(=O)[C@H](CC(C)C)NC(=O)[C@H](CCCCN)NC(=O)[C@H](CCCCN)NC(=O)[C@H](CC(C)C)NC(=O)[C@H](CC(C)C)NC(=O)[C@H](CCCCN)NC(=O)[C@H](CCCCN)NC(=O)[C@H](Cc1c[nH]c2ccccc12)NC(=O)[C@@H](N)CCCCN)C(=O)N[C@@H](CCCCN)C(=O)N[C@@H](CCCCN)C(=O)O` [KWKKLLKKLLKLLKK]: the MIC in [8] was 11.3 µM (≈ 21.6 µg/mL); in [9], 16 µM (≈ 30.5 µg/mL); in experiment [10] it was 22.6 µM (≈ 43.2 µg/mL); in experiment [11] it was not below 32 µM; in [12], not below 32 µM; in experiment [13], not below 32 µM. Moreover, the MIC in experiment [14] stood at 8 µM (≈ 15.3 µg/mL); in experiment [15] it was 22.6 µM (≈ 43.2 µg/mL).
For `CC(C)C[C@H](NC(=O)[C@@H]1CCCN1C(=O)[C@H](CCCN=C(N)N)NC(=O)[C@H](CCCN=C(N)N)NC(=O)[C@H](CS)NC(=O)[C@H](CCC(N)=O)NC(=O)[C@@H](N)CCC(N)=O)C(=O)N[C@@H](Cc1ccc(O)cc1)C(=O)N[C@@H](CS)C(=O)N[C@@H](CCCN=C(N)N)C(=O)N[C@@H](CCCN=C(N)N)C(=O)N[C@@H](CCCN=C(N)N)C(=O)N[C@@H](Cc1c[nH]c2ccccc12)C(=O)N[C@@H](CO)C(=O)N[C@@H](Cc1cnc[nH]1)C(=O)N1CCC[C@H]1C(=O)N[C@@H](CCC(N)=O)C(=O)N[C@@H](Cc1ccccc1)C(=O)N[C@@H](CCC(=O)O)C(=O)N[C@@H](CCCCN)C(=O)O` [QQCRRPLYCRRRWSHPQFEK], the MIC in experiment [16], in [17] and in experiment [18] was 25 µM (≈ 66.9 µg/mL) in each case.
With `CC(C)[C@H](NC(=O)[C@H](CCCCN)NC(=O)[C@@H](N)CCCN=C(N)N)C(=O)N[C@@H](CCCN=C(N)N)C(=O)NCC(=O)N1CCC[C@H]1C(=O)N1CCC[C@H]1C(=O)O` [RKVRGPP], the MIC in experiment [19], in [20], in experiment [21] and in experiment [22] was not below 32 µM each time.
`CC[C@H](C)[C@H](NC(=O)[C@H](CCCN=C(N)N)NC(=O)[C@H](CCCN=C(N)N)NC(=O)[C@H](Cc1c[nH]c2ccccc12)NC(=O)[C@@H](N)CCCN=C(N)N)C(=O)N[C@H](C(=O)N[C@H](C(=O)N[C@H](C(=O)N[C@@H](CCCN=C(N)N)C(=O)N[C@H](C(=O)N[C@@H](CCCN=C(N)N)C(=O)N[C@@H](CCCN=C(N)N)C(N)=O)C(C)C)[C@@H](C)CC)C(C)C)C(C)C` [RWRRIVVIRVRR]: the MIC is not below 64 µM in experiment [23]; 16 µM (≈ 26.6 µg/mL) in [24]; 16 µM (≈ 26.6 µg/mL) in the experiment with Escherichia coli UB1005; 2 µM (≈ 3.33 µg/mL) in experiment [25]; not below 128 µM in experiment [26]; not below 32 µM in [27]. In addition, the MIC in [28] is 8 µM (≈ 13.3 µg/mL); in [29], 32 µM (≈ 53.3 µg/mL); in experiment [30], not below 32 µM; in [31] it was 256 µM (≈ 426 µg/mL); in [32], not below 64 µM.
`CC[C@H](C)[C@H](NC(=O)[C@H](CCCN=C(N)N)NC(=O)[C@H](CCCN=C(N)N)NC(=O)[C@@H]1CCCN1C(=O)[C@@H]1CCCN1C(=O)[C@@H](NC(=O)[C@@H]1CCCN1C(=O)[C@H](CCCN=C(N)N)NC(=O)[C@@H]1CCCN1C(=O)[C@H](CC(C)C)NC(=O)[C@H](Cc1ccc(O)cc1)NC(=O)[C@@H]1CCCN1C(=O)[C@@H]1CCCN1C(=O)[C@H](CCCCN)NC(=O)[C@H](CC(=O)O)NC(=O)[C@@H](N)C(C)C)[C@@H](C)O)C(=O)N[C@@H](Cc1ccc(O)cc1)C(=O)N[C@@H](CC(N)=O)C(=O)O` [VDKPPYLPRPTPPRRIYN]: the MIC with Escherichia coli BL21AI was not below 57.4 µM; in experiment [33] it was 28.7 µM (≈ 62.5 µg/mL).

Usually MIC stands for the least concentration at which growth counts as inhibited. High values mean a need for much substance, low ones inhibition by little substance.
